Data published in US20070093484A1, “3-Substituted 5,6-diaryl-pyrazine-2-carboxamide and -2-sulfonamide derivatives as cb1 modulators” (ASTRAZENECA AB, priority 2003, published 2007).

Biological target: T1, CB1 receptor (Homo sapiens, UniProt P21554)
T1 construct: expressed in transfected cells
Experiment: [35S]-GTPγS binding assay, inhibition of CP55940-stimulated activity in membranes from CB1-transfected cells
Type: biochemical
Conditions: membranes from cells stably transfected with the CB1 gene; EC80 concentration of agonist CP55940; 30° C., 45 min; read-out: IC50 (concentration required to give half maximal inhibition of GTPγS binding)
Excerpt: Compounds of the present invention are active against the receptor product of the CB1 gene. The compounds of the present invention are active at the CB 1 receptor (IC50<1 micromolar). Most preferred compounds have IC50<200 nanomolar. The affinity of the compounds of the invention for central cannabinoid receptors is demonstrable in methods described in Devane et al, Molecular Pharmacology, 1988, 34,605 or those described in WO 01/70700 or EP 656354. Alternatively the assay may be performed as follows.
10 μg of membranes prepared from cells stably transfected with the CB1 gene were suspended in 200 μl of 100 mM NaCl, 5 mM MgCl2, 1 mM EDTA, 50 mM HEPES (pH 7.4), 1 mM DTT, 0.1% BSA and 100 μM GDP. To this was added an EC80 concentration of agonist CP55940), the required concentration of test compound and 0.1 μCi [^35S]-GTPγS. The reaction was allowed to proceed at 30° C. for 45 nun. Samples were then transferred on to GF/B filters using a cell harvester and washed with wash buffer (50 mM Tris (pH 7.4), 5 mM MgCl2, 50 mM NaCl). Filters were then covered with scintilant and counted for the amount of [35]-GTPγS retained by the filter.
Activity is measured in the absence of all ligands (minimum activity) or in the presence of an EC80 concentration of CP55940 (maximum activity). These activities are set as 0% and 100% activity respectively. At various concentrations of novel ligand, activity is calculated as a percentage of the maximum activity and plotted. The data are fitted using the equation y=A+((B−A)/1+((C/x)UD)) and the IC50 value determined as the concentration required to give half maximal inhibition of GTPγS binding under the conditions used.

T1 sequence (P21554 whole entry): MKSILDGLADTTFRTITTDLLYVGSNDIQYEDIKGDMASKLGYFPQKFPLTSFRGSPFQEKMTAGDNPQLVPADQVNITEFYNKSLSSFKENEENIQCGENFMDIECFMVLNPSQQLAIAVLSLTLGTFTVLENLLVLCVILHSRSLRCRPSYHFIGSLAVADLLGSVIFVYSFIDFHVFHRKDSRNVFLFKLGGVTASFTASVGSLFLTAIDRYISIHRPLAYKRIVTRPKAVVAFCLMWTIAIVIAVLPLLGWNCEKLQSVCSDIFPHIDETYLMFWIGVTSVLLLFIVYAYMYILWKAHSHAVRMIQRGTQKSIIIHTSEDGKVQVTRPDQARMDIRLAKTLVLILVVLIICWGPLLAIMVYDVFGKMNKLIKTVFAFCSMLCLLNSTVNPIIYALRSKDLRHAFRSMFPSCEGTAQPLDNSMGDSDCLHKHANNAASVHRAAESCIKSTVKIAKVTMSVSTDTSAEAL

Row | SMILES | IC50 [nM]
1 | CC(C)(C)NNC(=O)c1nc(-c2ccc(Cl)cc2)c(-c2ccc(Cl)cc2)nc1C(=O)OC(C)(C)C [Example 9] | 1.8
2 | O=C(NN1CCCCC1)c1nc(-c2ccc(Cl)cc2)c(-c2ccc(Cl)cc2)nc1CN1CCOCC1 [Example 27, 5,6-bis(4-chlorophenyl)-3-(morpholin-4-ylmethyl)-N-piperidin-1-ylpyrazine-2-carboxamide] | 13.5
3 | Cc1ccc(-c2nc(Cn3cnnn3)c(C(=O)NN3CCCCC3)nc2-c2ccc(C)cc2)cc1 [Example 35, 5,6-Bis(4-methylphenyl)-N-piperidin-1-yl-3-(1H-tetrazol-1-ylmethyl)pyrazine-2-carboxamide] | 1.4
